Measurements published in patent US7105554B2, “Benzylidene thiazolidinediones and their use as antimycotic agents” (priority 2000, dated 2006).

Key:
[1] = target: T1, Candida albicans PMT-1 enzyme (Candida albicans, UniProt O74189); test: PMT-1 Assay; assay type: biochemical; conditions: transfer of [3H]-mannose from dolicholphosphomannose to peptide DYATAV, Candida albicans membrane protein, 60 minutes at 25° C., pH 8.0; read-out: PMT-1 Inhibition (IC50, microM)
T1 construct: 25 μg of Candida albicans membrane protein; endogenous in cells
Procedure: The assay method is based upon the transfer of a radiolabelled mannose moiety from dolicholphosphomannose onto a threonine hydroxyl residue in a short peptide, as catalysed by the Candida albicans PMT-1 enzyme. Dolicholphospho-[^3H]-mannose is synthesised enzymatically from GDP-[^3H]-mannose and purified by chloroform:methanol extraction.
100000 Dpm of the generated substrate is incubated with 400 μg phosphatidylcholine, 25 μg of peptide (DYATAV) and 25 μg of Candida albicans membrane protein in a final volume of 50 μl in 100 mM Tris/1 mM MgCl2 buffer, pH 8.0. After 60 minutes at 25° C., the reaction is stopped with 50 μl of methanol. The unreacted radiolabel is removed by the addition of 150 μl of 0.4 g/ml octadecyl-functionalised silica (C18) in methanol. The C18 material is removed by centrifugation and the activity transferred to the peptide is counted in the supernatant.

[2] = system: Candida albicans (strain SC5314); test: G418 Sensitivity Assay; assay type: cell-based; conditions: concentration giving 50% reduction in cell growth relative to culture with G418 alone, strain SC5314, overnight at 37° C., OD600 nm, 1% DMSO
Procedure: This assay is based upon the observed increased sensitivity of the pmt1−/− Candida strain to Geneticin (G418) (6). 100 μl of a 0.1 OD600 nm culture of Candida albicans (strain SC5314) is placed into a 96 well plate in the presence or absence of varying concentrations of test compound. The compounds are initially dissolved in DMSO and added to the cultures at a final DMSO concentration of 1%. G418 is added to a final concentration of 100 [2 g/ml. In the absence of PMT1 inhibition, this concentration of G418 has no effect on the proliferation of the organism. The cultures are grown overnight at 37° C. and cell density is then estimated by an OD600 nm measurement. The effect of the test compound is calculated as the concentration that gives a 50% reduction in cell growth relative to the culture with G418 alone.

T1 sequence (O74189 whole entry): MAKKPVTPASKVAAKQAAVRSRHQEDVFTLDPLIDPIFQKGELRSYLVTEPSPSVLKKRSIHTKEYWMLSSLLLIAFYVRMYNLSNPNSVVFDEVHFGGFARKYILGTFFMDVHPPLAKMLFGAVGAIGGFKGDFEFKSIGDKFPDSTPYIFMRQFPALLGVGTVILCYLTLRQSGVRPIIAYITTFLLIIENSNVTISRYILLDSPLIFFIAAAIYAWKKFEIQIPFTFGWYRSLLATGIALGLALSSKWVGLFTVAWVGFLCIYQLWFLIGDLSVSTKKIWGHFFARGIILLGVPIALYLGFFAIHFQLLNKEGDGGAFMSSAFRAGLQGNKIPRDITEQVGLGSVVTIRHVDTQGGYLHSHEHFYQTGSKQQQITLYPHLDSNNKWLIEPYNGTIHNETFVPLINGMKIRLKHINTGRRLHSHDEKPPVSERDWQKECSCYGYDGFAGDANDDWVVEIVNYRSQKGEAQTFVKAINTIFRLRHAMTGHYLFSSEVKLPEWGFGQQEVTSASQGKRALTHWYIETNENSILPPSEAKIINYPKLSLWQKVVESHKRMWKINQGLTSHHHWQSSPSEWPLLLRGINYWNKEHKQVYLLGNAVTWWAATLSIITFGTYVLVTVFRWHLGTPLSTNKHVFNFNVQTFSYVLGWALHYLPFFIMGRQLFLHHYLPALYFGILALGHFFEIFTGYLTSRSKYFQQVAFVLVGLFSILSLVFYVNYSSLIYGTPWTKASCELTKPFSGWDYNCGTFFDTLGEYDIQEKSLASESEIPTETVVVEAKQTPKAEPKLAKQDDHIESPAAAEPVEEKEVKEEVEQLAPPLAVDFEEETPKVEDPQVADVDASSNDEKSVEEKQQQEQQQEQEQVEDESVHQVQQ
T1 sequence (Q5ADM9 whole entry, further chain): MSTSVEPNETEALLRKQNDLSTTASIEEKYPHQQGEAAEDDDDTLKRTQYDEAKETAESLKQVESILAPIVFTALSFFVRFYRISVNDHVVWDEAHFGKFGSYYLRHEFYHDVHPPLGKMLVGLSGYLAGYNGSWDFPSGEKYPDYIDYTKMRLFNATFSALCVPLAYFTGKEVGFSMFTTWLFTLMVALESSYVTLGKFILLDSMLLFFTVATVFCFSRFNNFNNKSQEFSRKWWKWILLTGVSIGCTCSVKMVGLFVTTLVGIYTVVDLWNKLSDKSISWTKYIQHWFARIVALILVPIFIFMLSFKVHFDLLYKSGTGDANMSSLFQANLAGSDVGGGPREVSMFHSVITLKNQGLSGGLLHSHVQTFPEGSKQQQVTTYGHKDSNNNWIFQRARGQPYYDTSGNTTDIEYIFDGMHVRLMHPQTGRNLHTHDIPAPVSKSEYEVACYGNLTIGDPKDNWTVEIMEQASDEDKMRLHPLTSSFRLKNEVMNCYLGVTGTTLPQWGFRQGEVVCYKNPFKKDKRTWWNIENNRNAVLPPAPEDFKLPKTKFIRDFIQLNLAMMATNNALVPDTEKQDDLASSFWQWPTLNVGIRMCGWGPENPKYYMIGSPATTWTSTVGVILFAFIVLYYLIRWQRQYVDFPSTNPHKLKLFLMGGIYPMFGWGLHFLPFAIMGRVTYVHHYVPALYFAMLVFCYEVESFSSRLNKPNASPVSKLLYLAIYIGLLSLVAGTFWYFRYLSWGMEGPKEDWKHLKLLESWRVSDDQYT

melting point [°C] | SMILES | IC50 [1] [µM] | IC50 [2] [nM]
235 to 238 | O=C(O)CN1C(=O)/C(=C/c2ccc(OCc3ccccc3)c(OCc3ccccc3)c2)SC1=S [Example 29, 5-[[3,4-bis(phenylmethoxy)phenyl]methylene]-4-oxo-2-thioxo-3-thiazolidineacetic acid] | – | –
– | O=C(O)CN1C(=O)/C(=C/c2ccc(OCc3cccc(C(F)(F)F)c3)c(OCc3ccccc3)c2)SC1=S [Example 39, 5-[[3-(Phenylmethoxy)-4-[(3-trifluoromethylphenyl)methoxy]phenyl]-methylene]-4-oxo-2-thioxo-3-thiazolidineacetic acid] | 2 | 650
– | O=C(O)CN1C(=O)/C(=C/c2ccc(OCc3ccc(OC(F)(F)F)cc3)c(OCc3ccccc3)c2)SC1=S [Example 42, 5-[[3-(Phenylmethoxy)-4-[(4-trifluoromethoxyphenyl)methoxy]-phenyl]-methylene]-4-oxo-2-thioxo-3-thiazolidineacetic acid] | 1 | 350
– | O=C(O)CN1C(=O)/C(=C/c2ccc(OCc3ccc(Cl)cc3)c(OCc3ccccc3)c2)SC1=S [Example 44, 5-[[4-[(4-Chlorophenyl)methoxy] 3-(phenylmethoxy)phenyl]-methylene]-4-oxo-2-thioxo-3-thiazolidineacetic acid] | 1 | 600
73 to 80 | C[C@H](COc1ccc(/C=C2\SC(=S)N(CC(=O)O)C2=O)cc1O[C@@H](c1ccccc1)C(F)(F)F)c1ccccc1 [Example 60, 5-[[3-[(S)-1-Phenyl-2,2,2-trifluoroethoxy]-4-[(S)-2-phenylpropoxy]-phenyl]methylene]-4-oxo-2-thioxo-3-thiazolidineacetic acid] | – | –
